Source: patent publication US5656662A, “Synthesis of optically pure 4-alkenyl- or 4-alkanyl-2-hydroxytetronic acids” (The Ohio State University Research Foundation, priority 1995, dated 1997)

Tests used:
Type in all cases: cell-based
Design in all cases: key: NE: No effect; INHIB: Inhibition; STIM: Stimulation; IC40: 40% Inhibitory Concentration; EC50: 50% Effective Concentration; TC: Tolerated Concentration; IA: Interferes with Assay
[1] = tested on: adhesion of purified human monocytes to human umbilical vein endothelial cell (HUVEC) cultures; assay: Adhesion of purified human monocytes to HUVEC cultures; conditions: STIMULATED
Procedure: This assays measures the ability of test compounds to modulate adhesion of purified human monocytes to human umbilical vein endothelial cell (HUVEC) cultures. HUVECs are cultured to confluence in 96-well plates. Purified human monocytes are labelled with fluorescent dye. Triplicate cultures of HUVECs and monocytes are treated with four dilutions of test compound over a range of three log10 concentrations, in addition to stimulated and unstimulated controls. One hour after treatment, TNFα is added to HUVEC cultures to stimulate production of adhesion molecules. After a twelve hour incubation, the treated monocytes are added to their corresponding HUVEC cultures and incubated for ten minutes. The stimulation index (S.I.) is determined by comparing the fluorescence of treated cultures to untreated controls using a fluorometric readout in a 96-well format.

LTB4 = LTB4 production by purified human monocytes
Procedure: This assay measures the ability of test compounds to modulate the amount of LTB4 produced by the oxygenation of arachidonic acid by 5-lipooxygenase produced by purified human monocytes. Compounds are tested for their ability to downregulate the secretion of LTB4 from activated monocytes, or upregulate secretion of LTB4 from unstimulated monocytes. Test compounds are incubated for ninety minutes with purified human monocytes at four dilutions over a range of three log10 concentrations. Where appropriate, zymosan is used to stimulate the monocytes.
The level of LTB4 in the resultant supernatants is quantitated by immunoassay performed in a 96 well format. LTB4 levels modulated by unknown compounds are determined by interpolation from a standard curve. All compounds are tested in duplicate with controls and standards.

GM-CSF = GM-CSF expression from purified human monocytes
Procedure: This assay determines the effect of test compounds on the expression of GM-CSF from purified human monocytes. Compounds are tested for their ability to downregulate the production of GM-CSF in activated monocytes, or upregulate secretion of GM-CSF in unstimulated monocytes. Test compounds are incubated for sixteen hours with purified human monocytes at four dilutions over a range of three log10 concentrations. Where appropriate, lipopolysaccharide (LPS) is used to stimulate the monocytes.
(§1) The level of GM-CSF in the resultant supernatants is quantitated in a solid phase Enzyme-linked Immunoassay (EIA) performed in a 96 well format. GM-CSF present in the samples is captured by a specific monoclonal antibody immobilized on the well, and probed with an anti-GM-CSF polyclonal antibody conjugated to horseradish peroxidase, followed by an appropriate substrate. The levels of GM- CSF are determined by interpolation of the resultant color change in the substrate from a standard curve. All supernatants are tested in duplicate with controls and standards.

purified human monocytes = assay: Chemotactic response of purified human monocytes; conditions: STIMULATED
Procedure: This assay measures the ability of test compounds to modulate the chemotactic response of purified human monocytes in response to a chemoattractant. Compounds are tested at four dilutions over a range of three log10 concentrations. The test compounds are combined with monocytes labeled with a fluorescent indicator and placed in the top wells of a chemotaxis chamber, above an optimized concentration of a monocyte chemoattractant placed in the wells below, and separated by a microporous filter. After sixty minutes, the migration of cells through the filter is quantified flurorometrically, and expressed in relation to spontaneous and maximum controls. All tests are carried out in triplicate.

IL-1ra = IL-1ra secretion from purified human monocytes
Procedure: This assay determines the effect of test compounds on the secretion of IL-1ra from purified human monocytes. Compounds are tested for their ability to downregulate or upregulate the production of IL-1ra in unstimulated monocytes and in activated monocytes. Test compounds are incubated for sixteen hours with purified human monocytes at four dilutions over a range of three log10 concentrations. Where appropriate, lipopolysaccharide (LPS) is used to stimulate the monocytes.
as §1, with “IL-1ra” for “GM-CSF”, “anti-IL-1ra” for “anti-GM-CSF”, “polyclonal antibody. A second” for “polyclonal”, “peroxidase is then added,” for “peroxidase,”, “IL-1ra” for “GM- CSF”, “All supernatants are tested in duplicate with controls and standards.” left out
This assay determines the effect of test compounds on the secretion of IL-1ra from purified human monocytes. […] The level of IL-1ra in the resultant supernatants is quantitated in a solid phase Enzyme-linked Immunoassay (EIA) performed in a 96 well format. […] The levels of IL-1ra are determined by interpolation of the resultant color change in the substrate from a standard curve. […]

CCCCCCCCCCCCCC/C=C\CC[C@@H]1OC(=O)C(O)=C1O [(S)-3,4-Dihydroxy-5-[(Z)-3-octadecenyl]-2(5H)-furanone]
NE: EFFECT on ADHESION [1] | EFFECT on LTB4 (LTB4; STIMULATED) | EFFECT on LTB4 (LTB4; UNSTIMULATED) | EFFECT on GMCSF (GM-CSF; STIMULATED) | EFFECT on GMCSF (GM-CSF; UNSTIMULATED) | EFFECT on CHEMOTAXIS (purified human monocytes) | EFFECT on IL1ra (IL-1ra; STIMULATED) | EFFECT on IL1ra (IL-1ra; UNSTIMULATED)
